Laboratory results reported in US11806407B2, “Refillable drug delivery by affinity homing” (UNIVERSITY OF NOTRE DAME DU LAC, priority 2018, dated 2023).
Like-named read-outs stand apart in the source and are kept apart here.

Key:
[1] = known competitor or probe guests, cited from earlier work
[2] = Competition 1H-NMR to determine Keq of guests for CB[7]; type: binding
Protocol: Determination of Keq by ^1H-NMR competition experiments. ^1H-NMR competition experiments were performed on a 500 MHz Bruker NMR spectrometer, according to the method described by Isaacs and colleagues. Briefly, NMR samples were prepared at three different ratios of a) a model compound for the PEG-appended guest, b) a competitive guest with a previously reported binding constant, and c) free unmodified CB[7]. Samples were prepared in D2O and allowed to reach equilibrium for times ranging from ˜30 minutes for the weakest guest to 4 days for the strongest guests. Equilibrium was verified by tracking the measured ^1H-NMR resonances until the spectra became constant. ^1H-NMR spectra were then acquired for each sample. […] The concentrations of the bound and free guest were obtained by this method, also yielding the concentration for the bound and the free form of the competing guest as well. In these equilibrium mixture, the Krel values were calculated using the relationships below. Krel values for 3 independent experiments with varying and known ratios of each of three components were averaged to obtain the final estimated Keq values.
[formula] Krel can alternatively be expressed as follows:
[formula] Rearranging yields the following expression for Keq: Krel,test=Krel,test/known×Keq,known

[3] = on the basis of fluorescence
[4] = NMR of bupivacaine bound to CB[7]; type: binding; conditions: preliminary, based on prior experience
[5] = Solubility of bupivacaine alone and with CB[7]; type: physicochemical
[6] = mice, i.p., RTECS database; cited from earlier work
MDA-MB-231 (luc+) tumor = experiment: In vivo tumor model with hydrogel adjacent to the tumor; parameters: species or system mice; conditions: 3 mg/kg/day doxorubicin equivalent, three consecutive days
Protocol: (§1) In Vivo Tumor Model. Luciferase-expressing MDA-MB-231 cells (Gen Target Inc) were received and passaged 3 times under sterile conditions in standard growth media (DMEM with 10% FBS). Tumors were induced by the injection of 106 cells suspended in 50% growth factor-reduced Matrigel (BD Biosciences) to a total volume of 200 μL (100 μL PBS and 100 μL Matrigel) subcutaneously onto the shaved right flank of NSG mice under sterile conditions. After 14 days, mice without palpable tumors were culled from the study. […] This day was considered as ‘day 0’ throughout the study. One day after gel injection (day 1), tumors started being tracked using in vivo bioluminescence imaging using an IVIS Lumina Imager. Mice were intraperitoneally injected with 0.1 ml of 30 mg/ml D-Luciferin in 1×DPBS 10 min before imaging, determined from control experiments to be sufficient to capture luminescent signal at its plateau. Mice were randomized into groups. Treated animals received Fc-Hdz-Dox or Me-Hdz-Dox (6 mg/kg Dox-equivalent dose) by i.p. injection in 0.1 ml saline 1, 2, and 3 days after hydrogel application. PBS was injected in the same way into control animals. Throughout the study, in vivo bioluminescence imaging and body weight was collected for treated mice every three days. At day 28, mice were euthanized and tumors were excised and weighed.

MDA-MB-231 cells = experiment: MTT in vitro cytotoxicity assay; type: cell-based; conditions: Homo sapiens, 72 hrs
Protocol: In Vitro Drug Functional Assay. […] Briefly, MDA-MB-231 cells were seeded in 96 well plates at a density of 20,000 cells per well in 200 μL complete growth media (DMEM with 10% FBS) and cultured for 24 hrs. Assorted concentrations of Fc-Hdz-Dox, Me-Hdz-Dox and free doxorubicin were prepared in fresh growth media were prepared and added to each well. The cells were incubated for 72 hrs. Controls consisted of cells grown in the same volume of normal media, and background was collected from wells with media only. The media in each well were replaced with 100 uL of 3-(4,5-dimethylthiazol-2-yl)-2,5-diphenyltetrazolium bromide (MTT) salt in PBS solution at a concentration of 2 mg/mL. After incubation at 37° C. for 1 hr, the supernatant was replaced with 100 μL of dimethyl sulfoxide (DMSO) and plates were agitated for 15 minutes at room temperature. Absorbance readings were collected on a TECAN Infinite M200 PRO microplate reader at 570 nm. Results were expressed as viability relative to the cell number in the untreated wells. Samples were fit to a standard dose-response function (GraphPad Prism v8) to extract the IC50 for each compound.

[7] = Weight, survival and morbidity in the tumor studies; conditions: 3 mg/kg/day doxorubicin equivalent, three consecutive days
Protocol: as §1

[8] = cited from earlier work
[9] = rats; cited from earlier work

NCCCCCCN [1,6-diaminohexane]
Keq for binding to CB[7], literature-reported [1]: 8.9e+07 M⁻¹

OC12CC3CC(CC(C3)C1)C2 [1-adamantanol]
Keq for binding to CB[7], literature-reported [1]: 2.3e+10 M⁻¹
Keq for binding to CB[7], literature-reported ([1]; listed as SM2): ~1e+10 M⁻¹

CN(C)c1ccc2cc3ccc(N(C)C)cc3nc2c1 [Acridine Orange]
Keq for binding to CB[7], literature-reported [1]: 200000 M⁻¹

CN1/C(=C/C=C/C=C/C2=[N+](CCCCCC(=O)NCCC(=O)NC34CC5CC(CC(C5)C3)C4)c3ccc(S(=O)(=O)[O-])cc3C2(C)C)C(C)(C)c2cc(S(=O)(=O)O)ccc21 [Ad-Am-Cy5]
Keq for binding to CB[7] ([2]; competition 1H-NMR in D2O, association constant): 2.1e+10 M⁻¹
fold less accumulation at the hydrogel than the strong conjugate [3]: 3 fold

CC(=O)NCCC(=O)NC12CC3CC(CC(C3)C1)C2 [Ada-Am-Ac]
Krel ([2]; model guest relative to competitive guest, average of three competition experiments): 0.89

CCCCN1CCCCC1C(=O)Nc1c(C)cccc1C (stereo not shown) [bupivacaine]
binding to CB[7] [4]: ~10^8 M^−1
water solubility ([5]; combined with CB[7]): very good water solubility
solubility ([5]; on its own): sparingly soluble

COc1cccc2c1C(=O)c1c(O)c3c(c(O)c1C2=O)C[C@@](O)(C(=O)CO)C[C@@H]3O[C@H]1C[C@H](N)[C@H](O)[C@H](C)O1 [doxorubicin]
LD50 [6]: 11.2 mg/kg
tumor growth (MDA-MB-231 (luc+) tumor): tumors continued to grow in spite of treatment
IC50 (MDA-MB-231 cells): 490 nM
tolerability (weight, survival) [7]: weight loss and poor survival outcomes

NCc1ccc(CN)cc1 [p-xylylenediamine]
Keq for binding to CB[7], literature-reported [1]: 1.78e+09 M⁻¹
Keq for binding to CB[7], literature-reported ([1]; listed as SM^−1): ~1e+09 M⁻¹
Keq for binding to CB[7], literature-reported ([1]; listed as pxylylenediamine): 1.84e+09 M⁻¹

cucurbit[7]uril [CB[7]]
degradation in vivo [8]: not appreciably degraded in vivo
LD50 [9]: > 250 mg/kg
